Several values for one entry are separate records, joined by “and”; a condition that tells them apart may be missing. Identical values can stand only once.
Test system: BDF1 mice, Adenocarcinoma 755 s.c., tumor weight T/C
Experiment: NCI In Vivo Anticancer Drug Screen. Data for tumor model Adenocarcinoma 755 (subcutaneous) in B6D2F1 (BDF1) mice
Conditions: endpoint: mean tumor weight, higher = larger tumour
Procedure, shortened: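 Values express treated (T) relative to vehicle-dosed control (C) animals, based on survival or tumour size measured after compound treatment of mice bearing a transplanted tumour.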

[1] = dose: 25.0 mg/kg/injection, schedule: Q01DX011 (ip), vehicle: carboxymethylcellulose (CMC)
[2] = dose: 50.0 mg/kg/injection, schedule: Q01DX011 (ip), vehicle: carboxymethylcellulose (CMC)
[3] = dose: 100.0 mg/kg/injection, schedule: Q01DX011 (ip), vehicle: carboxymethylcellulose (CMC)

CSc1ncnc2nc[nH]c12
T/C (dose: 0.5 mg/kg/injection, schedule: Q#A X022 (ip), vehicle: carboxymethylcellulose (CMC)): 64 % of control | T/C (dose: 1.0 mg/kg/injection, schedule: Q01DX011 (im), vehicle: carboxymethylcellulose (CMC)): 99 % of control | T/C (dose: 1.0 mg/kg/injection, schedule: Q01DX011 (oral), vehicle: carboxymethylcellulose (CMC)): 58 % of control | T/C (dose: 1.0 mg/kg/injection, schedule: Q01DX011 (sc), vehicle: carboxymethylcellulose (CMC)): 58 % of control | T/C (dose: 1.5 mg/kg/injection, schedule: Q01DX011 (ip), vehicle: carboxymethylcellulose (CMC)): 50 % of control | T/C (dose: 2.5 mg/kg/injection, schedule: Q#A X022 (ip), vehicle: carboxymethylcellulose (CMC)): 46 % of control | T/C (dose: 3.0 mg/kg/injection, schedule: Q01DX011 (ip), vehicle: carboxymethylcellulose (CMC)): 82 % of control | T/C (dose: 5.0 mg/kg/injection, schedule: Q01DX011 (im), vehicle: carboxymethylcellulose (CMC)): 89 % of control | T/C (dose: 5.0 mg/kg/injection, schedule: Q01DX011 (oral), vehicle: carboxymethylcellulose (CMC)): 5 % of control and 26 % of control | T/C (dose: 5.0 mg/kg/injection, schedule: Q01DX011 (sc), vehicle: carboxymethylcellulose (CMC)): 60 % of control | T/C (dose: 5.0 mg/kg/injection, schedule: Q03DX004 (ip), vehicle: carboxymethylcellulose (CMC)): 70 % of control | T/C (dose: 5.0 mg/kg/injection, schedule: Q#A X022 (ip), vehicle: carboxymethylcellulose (CMC)): 40 % of control | T/C (dose: 6.0 mg/kg/injection, schedule: Q01DX011 (ip), vehicle: carboxymethylcellulose (CMC)): 28 % of control | T/C (dose: 7.5 mg/kg/injection, schedule: Q#A X022 (ip), vehicle: carboxymethylcellulose (CMC)): 40 % of control | T/C (dose: 10.0 mg/kg/injection, schedule: Q01DX001 (ip), vehicle: carboxymethylcellulose (CMC)): 94 % of control | T/C (dose: 10.0 mg/kg/injection, schedule: Q01DX011 (sc), vehicle: carboxymethylcellulose (CMC)): 30 % of control | T/C (dose: 10.0 mg/kg/injection, schedule: Q03DX004 (ip), vehicle: carboxymethylcellulose (CMC)): 86 % of control | T/C (dose: 12.0 mg/kg/injection, schedule: Q01DX011 (ip), vehicle: carboxymethylcellulose (CMC)): 13 % of control | T/C (dose: 12.5 mg/kg/injection, schedule: Q#A X022 (ip), vehicle: carboxymethylcellulose (CMC)): 4 % of control | T/C (dose: 15.0 mg/kg/injection, schedule: Q01DX011 (im), vehicle: carboxymethylcellulose (CMC)): 8 % of control | T/C (dose: 15.0 mg/kg/injection, schedule: Q01DX011 (oral), vehicle: carboxymethylcellulose (CMC)): 5 % of control | T/C (dose: 15.0 mg/kg/injection, schedule: Q01DX011 (sc), vehicle: carboxymethylcellulose (CMC)): 4 % of control | T/C (dose: 25.0 mg/kg/injection, schedule: Q01DX001 (ip), vehicle: carboxymethylcellulose (CMC)): 53 % of control | T/C (dose: 25.0 mg/kg/injection, schedule: Q01DX006 (iv), vehicle: carboxymethylcellulose (CMC)): 36 % of control | T/C (dose: 25.0 mg/kg/injection, schedule: Q01DX011 (im), vehicle: carboxymethylcellulose (CMC)): 6 % of control | T/C [1]: 1 % of control | T/C (dose: 25.0 mg/kg/injection, schedule: Q01DX011 (oral), vehicle: carboxymethylcellulose (CMC)): 11 % of control | T/C (dose: 25.0 mg/kg/injection, schedule: Q03DX004 (ip), vehicle: carboxymethylcellulose (CMC)): 82 % of control | T/C (dose: 25.0 mg/kg/injection, schedule: Q#A X022 (ip), vehicle: carboxymethylcellulose (CMC)): 2 % of control | T/C (dose: 50.0 mg/kg/injection, schedule: Q01DX001 (ip), vehicle: carboxymethylcellulose (CMC)): 41 % of control | T/C (dose: 50.0 mg/kg/injection, schedule: Q01DX006 (iv), vehicle: carboxymethylcellulose (CMC)): 37 % of control | T/C [2]: 1 % of control | T/C (dose: 50.0 mg/kg/injection, schedule: Q01DX011 (oral), vehicle: carboxymethylcellulose (CMC)): 1 % of control and 3 % of control | T/C (dose: 50.0 mg/kg/injection, schedule: Q03DX004 (ip), vehicle: carboxymethylcellulose (CMC)): 80 % of control | T/C (dose: 50.0 mg/kg/injection, schedule: Q#A X022 (ip), vehicle: carboxymethylcellulose (CMC)): 2 % of control | T/C (dose: 75.0 mg/kg/injection, schedule: Q01DX001 (ip), vehicle: carboxymethylcellulose (CMC)): 80 % of control | T/C (dose: 75.0 mg/kg/injection, schedule: Q03DX004 (ip), vehicle: carboxymethylcellulose (CMC)): 14 % of control | T/C (dose: 100.0 mg/kg/injection, schedule: Q01DX001 (ip), vehicle: carboxymethylcellulose (CMC)): 46 % of control | T/C (dose: 100.0 mg/kg/injection, schedule: Q01DX006 (iv), vehicle: carboxymethylcellulose (CMC)): 21 % of control | T/C [3]: 1 % of control | T/C (dose: 100.0 mg/kg/injection, schedule: Q01DX011 (oral), vehicle: carboxymethylcellulose (CMC)): 5 % of control | T/C (dose: 125.0 mg/kg/injection, schedule: Q01DX001 (ip), vehicle: carboxymethylcellulose (CMC)): 37 % of control | T/C (dose: 150.0 mg/kg/injection, schedule: Q03DX004 (ip), vehicle: carboxymethylcellulose (CMC)): 2 % of control | T/C (dose: 200.0 mg/kg/injection, schedule: Q01DX006 (iv), vehicle: carboxymethylcellulose (CMC)): 4 % of control | T/C (dose: 375.0 mg/kg/injection, schedule: Q01DX001 (ip), vehicle: carboxymethylcellulose (CMC)): 53 % of control

CCOC(=O)n1cnc2ncnc(SC)c21
T/C (dose: 5.0 mg/kg/injection, schedule: Q01DX011 (ip), vehicle: carboxymethylcellulose (CMC)): 59 % of control | T/C (dose: 10.0 mg/kg/injection, schedule: Q01DX011 (ip), vehicle: carboxymethylcellulose (CMC)): 80 % of control | T/C (dose: 12.5 mg/kg/injection, schedule: Q01DX011 (ip), vehicle: carboxymethylcellulose (CMC)): 48 % of control | T/C [1]: 15 % of control | T/C [2]: 7 % of control | T/C [3]: 5 % of control | T/C (dose: 200.0 mg/kg/injection, schedule: Q01DX011 (ip), vehicle: carboxymethylcellulose (CMC)): 5 % of control

CCC(=O)NC
T/C (dose: 45.0 mg/kg/injection, schedule: Q01DX011 (ip), vehicle: saline): 107 % of control | T/C (dose: 175.0 mg/kg/injection, schedule: Q01DX011 (ip), vehicle: saline): 81 % of control | T/C (dose: 350.0 mg/kg/injection, schedule: Q01DX011 (ip), vehicle: saline): 118 % of control | T/C (dose: 625.0 mg/kg/injection, schedule: Q#A X022 (ip), vehicle: other): 6 % of control | T/C (dose: 1000.0 mg/kg/injection, schedule: Q01DX011 (ip), vehicle: other): 11 % of control | T/C (dose: 1500.0 mg/kg/injection, schedule: Q01DX011 (ip), vehicle: other): 6 % of control | T/C (dose: 1560.0 mg/kg/injection, schedule: Q01DX011 (ip), vehicle: other): 49 % of control | T/C (dose: 1750.0 mg/kg/injection, schedule: Q01DX011 (ip), vehicle: other): 36 % of control

CCCCNP(=O)(N1CC1C)N1CC1C (stereo unspecified)
T/C (dose: 7.0 mg/kg/injection, schedule: Q01DX011 (ip), vehicle: saline): 53 % of control | T/C (dose: 14.0 mg/kg/injection, schedule: Q01DX011 (ip), vehicle: saline): 53 % of control | T/C (dose: 28.0 mg/kg/injection, schedule: Q01DX011 (ip), vehicle: saline): 25 % of control | T/C (dose: 56.0 mg/kg/injection, schedule: Q01DX011 (ip), vehicle: saline): 1 % of control

CCCn1cnc2c(SCc3ccccn3)nc(N)nc21
T/C (dose: 3.6 mg/kg/injection, schedule: Q01DX011 (ip), vehicle: methylcellulose (MC)): 12 % of control | T/C (dose: 7.25 mg/kg/injection, schedule: Q01DX011 (ip), vehicle: methylcellulose (MC)): 4 % of control | T/C (dose: 15.5 mg/kg/injection, schedule: Q01DX011 (ip), vehicle: methylcellulose (MC)): 1 % of control

C[C@]12CCC(=O)C[C@H]1CC[C@@H]1[C@@H]2C(=O)C[C@@]2(C)[C@H]1CC[C@]2(C)O
T/C (dose: 10.0 mg/kg/injection, schedule: Q01DX011 (sc), vehicle: steriod suspending solution): 85 % of control | T/C (dose: 100.0 mg/kg/injection, schedule: Q01DX011 (sc), vehicle: steriod suspending solution): 103 % of control | T/C (dose: 200.0 mg/kg/injection, schedule: Q01DX011 (sc), vehicle: steriod suspending solution): 105 % of control

C=C(C)C(=O)OCC1CO1 (stereo unspecified)
T/C (dose: 100.0 mg/kg/injection, schedule: Q01DX011 (ip), vehicle: water): 90 % of control | T/C (dose: 200.0 mg/kg/injection, schedule: Q01DX006 (ip), vehicle: water): 95 % of control | T/C (dose: 200.0 mg/kg/injection, schedule: Q01DX011 (ip), vehicle: other): 102 % of control | T/C (dose: 200.0 mg/kg/injection, schedule: Q01DX011 (ip), vehicle: water): 77 % of control | T/C (dose: 300.0 mg/kg/injection, schedule: Q01DX006 (ip), vehicle: water): 86 % of control

CC(Nc1ncnc2nc[nH]c12)C(=O)O (stereo unspecified)
T/C (dose: 25.0 mg/kg/injection, schedule: Q01DX011 (ip), vehicle: saline): 114 % of control | T/C (dose: 75.0 mg/kg/injection, schedule: Q01DX011 (ip), vehicle: saline): 86 % of control | T/C (dose: 225.0 mg/kg/injection, schedule: Q01DX011 (ip), vehicle: saline): 20 % of control

CN(C)CCCCl
T/C (dose: 25.0 mg/kg/injection, schedule: Q01DX011 (ip), vehicle: other): 81 % of control | T/C (dose: 50.0 mg/kg/injection, schedule: Q01DX011 (ip), vehicle: other): 83 % of control | T/C (dose: 100.0 mg/kg/injection, schedule: Q01DX011 (ip), vehicle: other): 98 % of control

Source: PubChem BioAssay AID180 (DTP/NCI, 2004)
